For eleven compounds, Ki results are on record in patent US5753647A, “Acylamino-substituted hetrazepines” (Boehringer Ingelheim KG, priority 1991, dated 1998).

For the first test, the target named is T1, PAF receptor on washed human platelets (Homo sapiens, UniProt P25105).
T1 construct: endogenous in cells; host or cells: human blood platelets (thrombocytes) from healthy donors, purified by Sepharose CL-2B chromatography
T1 sequence (P25105 whole entry): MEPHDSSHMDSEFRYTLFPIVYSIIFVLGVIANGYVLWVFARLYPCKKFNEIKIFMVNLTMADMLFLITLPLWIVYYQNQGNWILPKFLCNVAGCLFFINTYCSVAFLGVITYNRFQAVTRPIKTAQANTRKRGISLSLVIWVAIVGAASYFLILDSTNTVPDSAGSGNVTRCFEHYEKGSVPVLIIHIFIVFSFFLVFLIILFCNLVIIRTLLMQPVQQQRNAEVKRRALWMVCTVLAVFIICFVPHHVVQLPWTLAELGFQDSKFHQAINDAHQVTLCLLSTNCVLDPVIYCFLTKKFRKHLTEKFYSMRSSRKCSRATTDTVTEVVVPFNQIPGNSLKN
The test can be described thus: [^3 H]PAF-receptor binding to vital human blood platelets. The note with it: vital human thrombocytes. As for the experimental part: [^3 H]PAF-Receptor-Bonding to Vital Human Blood Platelets
The competitive interaction of test substances (here PAF-antagonists) with the known interaction of the radioligand [^3 H]PAF to the same receptor is determined. The binding studies are carried out on vital human thrombocytes. Blood samples from healthy donors were diluted with ACD-buffer and centrifuged (15 min., 160×g). The platelet-rich plasma is purified by chromatography on Sepharose CL-2B [using HEPES-buffer, pH 7.4 at 20° C. for eluting].
Defined quantities [e.g. 800 μl] of the platelet suspension were incubated for 90 minutes at ambient temperature, i.e. mixed with: a) a 30 picomolar [^3 H]PAF-solution diluted with buffer. b) a 30 picomolar [3 H] PAF-solution which simultaneously contains a μ-molar (unlabelled) PAF-solution, c) with the 30 picomolar [^3 H]PAF-solution and the solutions of the test substances (different concentrations) d) used to determine total binding, e) used to determine non-specific binding.
The reaction was stopped by vacuum filtration. The filters with the blood platelets were mixed with scintillation liquid and the residual radioactivity measured in a counter.
The specific binding is obtained from the total binding minus the nonspecific binding. Either the IC50 values (i.e. the concentration of test substance which displaces 50% of the radioligand--in this case [^3 H] PAF--from the receptor) is determined and this is specified, or the Ki -values are calculated from this. This may be done by computer-aided calculation using an iteration process of the binding curves. IC50 and Ki-values are a measurement of the receptor affinity of the test substance. Lower values indicate a higher affinity.
In turn, `COc1ccc(C(=O)N2CCc3c(sc4c3C(c3ccccc3Cl)=NC(C)c3nnc(C)n3-4)C2)cc1` (centres unmarked) [Example 29] yielded a Ki of 7.8 nM.

Take `Cc1nnc2n1-c1sc3c(c1C(c1ccccc1Cl)=NC2C)CCN(C(=O)c1ccc(Cl)cc1)C3` (centres unmarked) [Example 1, 3-(4-Chlorobenzoyl)-6-(2-chlorophenyl)-8,11-dimethyl-2,3,4,5-tetrahydro-4H-pyrido[4,3 :4',5']thieno-[3,2-f][1,2,4]triazolo[4,3-a]-1,4-diazepine]: the Ki was found to be 2.9 nM. For `Cc1nnc2n1-c1sc3c(c1C(c1ccccc1Cl)=NC2C)CCN(C(=O)c1ccc(Cl)cc1)C3` (centres unmarked) [Example 1b], the Ki amounted to 71 nM. `CCc1ccc(C(=O)N2CCc3c(sc4c3C(c3ccccc3Cl)=NC(C)c3nnc(C)n3-4)C2)cc1` (centres unmarked) [Example 82] yielded a Ki of 2.5 nM.

Compound `Cc1nnc2n1-c1sc3c(c1C(c1ccccc1Cl)=NC2C)CCN(C(=O)c1ccc(C(F)(F)F)cc1)C3` (centres unmarked) [Example 67] yielded a Ki of 2.8 nM. On the same count and under the same terms, the figure for `Cc1nnc2n1-c1sc3c(c1C(c1ccccc1Cl)=NC2C)CCN(C(=O)C(C)(C)C)C3` (centres unmarked) [Example 73] is 10 nM; for `Cc1nnc2n1-c1sc3c(c1C(c1ccccc1Cl)=NC2C)CCN(C(=O)c1ccc(C(C)(C)C)cc1)C3` (centres unmarked) [Example 25] it is 2.4 nM; for “3-(4-Isobutylbenzoyl)-6-(2-chlorophenyl)-8,11-dimethyl-2,3,4,5-tetrahydro-4H-pyrido[4,3:4',5']thieno-[3,2-f][1,2,4]triazolo[4,3-a]1,4diazepine [Example 2]” it is 1.8 nM. Compound `Cc1ccc(C(=O)N2CCc3c(sc4c3C(c3ccccc3Cl)=NC(C)c3nnc(C)n3-4)C2)cc1` (centres unmarked) [Example 20] showed a Ki of 22 nM. On the same count and under the same terms, then `Cc1nnc2n1-c1sc3c(c1C(c1ccccc1Cl)=NC2C)CCN(C(=O)c1ccc(Cl)cc1)C3` (centres unmarked) [Example 1a], with 1.9 nM.

The next test addresses T1, PAF receptor on washed human platelets.
Test: not given
The settings on record: as known from the prior art (EP 367 110); read-out: binding value Ki of prior art compound; cited from earlier work.
As to `Cc1nnc2n1-c1sc3c(c1C(c1ccccc1Cl)=NC2)CCN(C(=O)C1CC1)C3` [3-cyclopropylcarbonyl-6-(2-chlorophenyl)-11-methyl-2,3,4,5-tetrahydro-4H-pyrido-[4,3:4',5']thieno[3,2-f][1,2,4]triazolo[4,3-a]-1,4-diazepine], the Ki was 13 nM.

As usually defined, the Ki is a dissociation constant, usually derived from enzyme kinetics or from competition with a known ligand.
